Key:
[1] = molecular target: Acetylcholinesterase (Electrophorus electricus, UniProt O42275); assay: Inhibition of electric eel AChE using acetylthiocholine iodide as substrate preincubated for 20 mins followed by substrate addition and measured every minute for 10 mins by DTNB-reagent based Ellman's method
[2] = molecular target: T1, Cholinesterase (Equus caballus, UniProt P81908); assay: Inhibition of equine serum BChE using S-butyrylthiocholine iodide as substrate preincubated for 20 mins followed by substrate addition and measured every minute for 10 mins by DTNB-reagent based Ellman's method
[3] = Effective permeability of compound by PAMPA-BBB assay; type: ADME; details: read-out: Peff
[4] = molecular target: T2, Acetylcholinesterase (Homo sapiens, UniProt P22303); assay: Non-competitive inhibition of recombinant human AChE assessed as decrease in Vmax with constant Km using varying level of acetylthiocholine iodide as substrate preincubated for 20 mins followed by substrate addition and measured every minute for 10 mins by Lineweaver-Burk plot analysis
[5] = molecular target: T1, Cholinesterase; assay: Mixed type inhibition of equine serum BChE assessed as decrease in Vmax and increase in Km using varying level of S-butyrylthiocholine iodide as substrate preincubated for 20 mins followed by substrate addition and measured every minute for 10 mins by Lineweaver-Burk plot analysis
[6] = molecular target: T2, Acetylcholinesterase; assay: Inhibition of recombinant human AChE
[7] = organism: Rattus norvegicus; assay: Inhibition of rat self-induced Amyloid beta (1 to 42 residues) aggregation at 10 uM incubated for 24 hrs by thioflavin-T fluorescence assay relative to control

T1 sequence (P81908 whole entry): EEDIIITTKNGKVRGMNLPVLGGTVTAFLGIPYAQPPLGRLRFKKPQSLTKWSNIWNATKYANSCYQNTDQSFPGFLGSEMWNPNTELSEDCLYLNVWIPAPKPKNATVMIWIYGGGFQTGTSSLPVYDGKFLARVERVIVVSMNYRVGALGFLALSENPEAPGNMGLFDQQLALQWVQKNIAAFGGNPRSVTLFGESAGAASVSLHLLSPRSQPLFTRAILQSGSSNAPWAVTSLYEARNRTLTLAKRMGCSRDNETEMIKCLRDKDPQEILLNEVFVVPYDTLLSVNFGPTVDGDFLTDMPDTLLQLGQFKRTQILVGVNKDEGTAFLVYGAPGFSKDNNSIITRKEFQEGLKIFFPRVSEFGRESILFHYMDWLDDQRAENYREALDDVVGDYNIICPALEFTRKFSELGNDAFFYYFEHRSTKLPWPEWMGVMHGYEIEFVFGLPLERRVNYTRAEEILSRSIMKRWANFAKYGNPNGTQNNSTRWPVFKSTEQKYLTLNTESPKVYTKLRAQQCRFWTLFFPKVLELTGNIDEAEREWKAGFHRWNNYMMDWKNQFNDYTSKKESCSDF
Chain of Acetylcholinesterase (Electrophorus electricus, UniProt O42275) (O42275 whole entry): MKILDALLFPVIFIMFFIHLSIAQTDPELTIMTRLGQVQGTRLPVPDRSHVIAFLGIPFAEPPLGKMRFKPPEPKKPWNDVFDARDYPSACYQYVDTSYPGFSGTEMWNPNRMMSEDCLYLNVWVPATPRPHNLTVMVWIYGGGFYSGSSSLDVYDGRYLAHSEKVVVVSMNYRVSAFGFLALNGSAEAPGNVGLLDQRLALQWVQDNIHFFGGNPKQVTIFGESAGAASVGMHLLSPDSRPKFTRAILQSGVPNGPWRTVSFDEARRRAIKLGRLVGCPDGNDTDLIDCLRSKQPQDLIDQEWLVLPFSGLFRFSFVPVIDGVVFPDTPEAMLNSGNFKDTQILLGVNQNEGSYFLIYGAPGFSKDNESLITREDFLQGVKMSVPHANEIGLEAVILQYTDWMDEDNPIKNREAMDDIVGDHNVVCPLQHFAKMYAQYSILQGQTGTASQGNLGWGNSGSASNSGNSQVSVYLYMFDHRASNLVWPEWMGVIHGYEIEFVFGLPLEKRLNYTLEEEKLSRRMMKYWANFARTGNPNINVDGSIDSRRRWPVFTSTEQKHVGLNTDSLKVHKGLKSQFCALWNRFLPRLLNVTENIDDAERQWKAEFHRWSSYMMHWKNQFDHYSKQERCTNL
T2 sequence (P22303 whole entry): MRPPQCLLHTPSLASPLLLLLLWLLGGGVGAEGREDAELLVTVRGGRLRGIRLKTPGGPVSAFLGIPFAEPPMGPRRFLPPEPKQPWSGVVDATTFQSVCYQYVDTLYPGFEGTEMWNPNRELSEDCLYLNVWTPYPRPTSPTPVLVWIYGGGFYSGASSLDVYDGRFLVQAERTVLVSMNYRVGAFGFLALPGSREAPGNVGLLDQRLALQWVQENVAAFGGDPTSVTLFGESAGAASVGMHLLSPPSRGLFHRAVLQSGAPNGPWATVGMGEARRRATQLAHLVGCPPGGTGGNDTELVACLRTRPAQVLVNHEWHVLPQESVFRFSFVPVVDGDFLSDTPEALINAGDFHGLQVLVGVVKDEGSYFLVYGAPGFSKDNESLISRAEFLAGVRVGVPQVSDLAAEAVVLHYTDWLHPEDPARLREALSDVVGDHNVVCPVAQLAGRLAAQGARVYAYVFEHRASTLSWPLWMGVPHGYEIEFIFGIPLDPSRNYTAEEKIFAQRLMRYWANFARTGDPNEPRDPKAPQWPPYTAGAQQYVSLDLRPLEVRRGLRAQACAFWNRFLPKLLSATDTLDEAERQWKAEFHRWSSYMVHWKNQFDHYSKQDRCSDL

| Structure (SMILES) | IC50 [1] [nM] | IC50 [2] [nM] | further results |
| --- | --- | --- | --- |
| COc1ccc(C(=O)Nc2cc[n+](Cc3ccccc3)cc2)cc1OC | 420 | – | – |
| COc1ccc2cc(C(=O)NCCc3cc[n+](Cc4ccccc4)cc3)ccc2c1.[Br-] | 770 | 680 | Papp [3]: 1.3 ×10⁻⁶ cm/s |
| COc1ccc2cc(C(=O)NCCC3CCN(Cc4ccccc4)CC3)ccc2c1 | – | – | Ki [4]: 210 nM; Ki [5]: 150 nM; IC50 [6]: 170 nM; Papp [3]: 6.9 ×10⁻⁶ cm/s; inhibition [7]: 25% |
| COc1cc(OC)cc(C(=O)Nc2cc[n+](Cc3ccccc3)cc2)c1 | 202 | – | – |
| COc1ccc2cc(C(=O)NCCc3cc[n+](Cc4cccc(Cl)c4)cc3)ccc2c1 | 610 | > 1000 | – |
| N#Cc1ccc(C(=O)Nc2cc[n+](Cc3ccccc3)cc2)cc1 | 469 | – | – |
| COc1ccc2cc(C(=O)Nc3cc[n+](Cc4ccccc4C)cc3)ccc2c1 | 435 | > 1000 | – |
| O=C(Nc1cc[n+](Cc2ccccc2)cc1)c1ccc(OCc2ccccc2)cc1 | 360 | > 1000 | – |
| COc1ccc2cc(C(=O)Nc3cc[n+](Cc4ccccc4F)cc3)ccc2c1 | 210 | > 1000 | – |
| COc1ccc2cc(C(=O)Nc3cc[n+](Cc4ccc(Cl)cc4)cc3)ccc2c1 | 900 | > 1000 | – |
| O=C(Nc1cc[n+](Cc2ccccc2)cc1)c1ccc2cc(Br)ccc2c1 | 1440 | – | – |
| COc1ccc2cc(C(=O)NCCc3cc[n+](Cc4ccccc4F)cc3)ccc2c1 | 280 | > 1000 | – |
| CC(C)c1ccc(C(=O)Nc2cc[n+](Cc3ccccc3)cc2)cc1 | 852 | – | – |
| COc1ccc(C(=O)Nc2cc[n+](Cc3ccccc3)cc2)cc1 | 216 | – | – |
| O=C(Nc1cc[n+](Cc2ccccc2)cc1)c1ccc(-c2ccccc2)cc1 | 770 | > 1000 | – |
| COc1ccc2cc(C(=O)Nc3cc[n+](Cc4ccccc4[N+](=O)[O-])cc3)ccc2c1 | 480 | > 1000 | – |
| COc1ccc2cc(C(=O)Nc3cc[n+](Cc4ccccc4Cl)cc3)ccc2c1 | 340 | > 1000 | – |
| COc1ccc2cc(C(=O)Nc3cc[n+](Cc4ccc(F)cc4)cc3)ccc2c1 | 210 | > 1000 | – |
| COc1ccc2cc(C(=O)NCCc3cc[n+](Cc4ccc(F)cc4)cc3)ccc2c1 | 740 | > 1000 | – |
| COc1ccc2cc(C(=O)Nc3cc[n+](Cc4ccccc4)cc3)ccc2c1 | 218 | 1590 | – |
| CCOc1ccc(C(=O)Nc2cc[n+](Cc3ccccc3)cc2)cc1 | 201 | 12700 | – |
| COc1ccc2cc(C(=O)NCCc3cc[n+](Cc4ccc([N+](=O)[O-])cc4)cc3)ccc2c1 | 740 | > 1000 | – |
| COc1ccc2cc(C(=O)NCCc3cc[n+](Cc4ccccc4C)cc3)ccc2c1 | 1080 | > 1000 | – |
| COc1ccc2cc(C(=O)NCCc3cc[n+](Cc4ccccc4[N+](=O)[O-])cc3)ccc2c1 | 280 | > 1000 | – |
| COc1ccc2cc(C(=O)NCCc3cc[n+](Cc4ccccc4Cl)cc3)ccc2c1 | 500 | 830 | – |

From ChEMBL document CHEMBL4706581, “Discovery of methoxy-naphthyl linked N-(1-benzylpiperidine) benzamide as a blood-brain permeable dual inhibitor of acetylcholinesterase and butyrylcholinesterase” (Eur J Med Chem, 2020)
